± gives the expanded uncertainty stated by the source.
Test: xn = mol fraction of the nth substance listed
Conditions: 101 kPa, Liquid; for speed of sound: Pulse-echo method

CCCCCCCCCO [nonan-1-ol] + Cc1cccc(C)c1
Conditions	mass density, 293.15 K [kg/m3]	mass density, 303.15 K [kg/m3]	mass density, 313.15 K [kg/m3]	speed of sound, 293.15 K [m/s]	speed of sound, 303.15 K [m/s]	speed of sound, 313.15 K [m/s]
x2 = 0	827.7 ± 0.43	820.82 ± 0.44	813.88 ± 0.45	1381 ± 2	1347 ± 2	1314 ± 2
x2 = 0.066	829.52 ± 0.43	822.53 ± 0.44	815.47 ± 0.45	1378 ± 2	1343 ± 2	1310 ± 2
x2 = 0.127	831.23 ± 0.43	824.14 ± 0.44	816.98 ± 0.45	1375 ± 2	1340 ± 2	1306 ± 2
x2 = 0.1739	832.57 ± 0.43	825.39 ± 0.44	818.16 ± 0.45	1373 ± 2	1337 ± 2	1302 ± 2
x2 = 0.2461	834.67 ± 0.44	827.36 ± 0.45	820.01 ± 0.46	1368 ± 2	1332 ± 2	1297 ± 2
x2 = 0.2913	836.03 ± 0.44	828.63 ± 0.45	821.21 ± 0.46	1365 ± 2	1328 ± 2	1293 ± 2
x2 = 0.3635	838.25 ± 0.44	830.72 ± 0.45	823.17 ± 0.46	1361 ± 2	1323 ± 2	1287 ± 2
x2 = 0.4422	840.77 ± 0.45	833.1 ± 0.46	825.42 ± 0.47	1355 ± 2	1317 ± 2	1281 ± 2
x2 = 0.4872	842.27 ± 0.45	834.52 ± 0.46	826.76 ± 0.47	1353 ± 2	1314 ± 2	1277 ± 2
x2 = 0.5648	844.95 ± 0.45	837.08 ± 0.46	829.18 ± 0.48	1348 ± 2	1309 ± 2	1272 ± 2
x2 = 0.6251	847.15 ± 0.46	839.19 ± 0.47	831.18 ± 0.48	1345 ± 2	1305 ± 2	1268 ± 2
x2 = 0.6873	849.54 ± 0.46	841.47 ± 0.47	833.35 ± 0.48	1342 ± 2	1302 ± 2	1264 ± 2
x2 = 0.7713	853 ± 0.47	844.78 ± 0.48	836.5 ± 0.49	1339 ± 2	1299 ± 2	1260 ± 2
x2 = 0.8507	856.56 ± 0.47	848.19 ± 0.48	839.76 ± 0.5	1338 ± 2	1298 ± 2	1258 ± 2
x2 = 0.9284	860.34 ± 0.48	851.84 ± 0.49	843.28 ± 0.5	1339 ± 2	1298 ± 2	1257 ± 2

CCCCCCCCCCO [decan-1-ol] + CCc1ccccc1
Conditions	mass density, 293.15 K [kg/m3]	mass density, 303.15 K [kg/m3]	mass density, 313.15 K [kg/m3]	speed of sound, 293.15 K [m/s]	speed of sound, 303.15 K [m/s]	speed of sound, 313.15 K [m/s]
x2 = 0	829.98 ± 0.42	823.1 ± 0.43	816.27 ± 0.43	1396 ± 2	1362 ± 2	1329 ± 2
x2 = 0.0666	831.5 ± 0.42	824.47 ± 0.43	817.46 ± 0.43	1391 ± 2	1356 ± 2	1322 ± 2
x2 = 0.1392	833.18 ± 0.42	826 ± 0.43	818.82 ± 0.43	1385 ± 2	1350 ± 2	1316 ± 2
x2 = 0.1932	834.47 ± 0.41	827.18 ± 0.42	819.88 ± 0.42	1381 ± 2	1345 ± 2	1310 ± 2
x2 = 0.2642	836.24 ± 0.41	828.8 ± 0.42	821.32 ± 0.42	1375 ± 2	1339 ± 2	1304 ± 2
x2 = 0.3355	838.11 ± 0.4	830.52 ± 0.41	822.85 ± 0.41	1369 ± 2	1333 ± 2	1297 ± 2
x2 = 0.3936	839.72 ± 0.4	832.03 ± 0.41	824.21 ± 0.41	1364 ± 2	1327 ± 2	1291 ± 2
x2 = 0.4483	841.33 ± 0.4	833.52 ± 0.41	825.58 ± 0.41	1360 ± 2	1322 ± 2	1286 ± 2
x2 = 0.5238	843.73 ± 0.39	835.78 ± 0.4	827.65 ± 0.4	1354 ± 2	1316 ± 2	1279 ± 2
x2 = 0.598	846.33 ± 0.39	838.23 ± 0.4	829.91 ± 0.4	1349 ± 2	1310 ± 2	1273 ± 2
x2 = 0.6621	848.79 ± 0.38	840.59 ± 0.39	832.13 ± 0.39	1344 ± 2	1305 ± 2	1268 ± 2
x2 = 0.7309	851.72 ± 0.38	843.4 ± 0.39	834.8 ± 0.39	1341 ± 2	1301 ± 2	1263 ± 2
x2 = 0.7953	854.7 ± 0.37	846.31 ± 0.38	837.56 ± 0.38	1338 ± 2	1298 ± 2	1259 ± 2
x2 = 0.8668	858.41 ± 0.36	849.96 ± 0.37	841.06 ± 0.37	1336 ± 2	1295 ± 2	1256 ± 2
x2 = 0.9396	862.65 ± 0.36	854.3 ± 0.37	845.13 ± 0.37	1336 ± 2	1295 ± 2	1255 ± 2

— the NIST ThermoML archive (doi:10.1021/je100734t)
